Consider 15 molecules from US10336731B2, “Substituted 1H-indole-2-carboxamide compounds as indoleamine-2,3-dioxygenase inhibitors” (Merck Sharp & Dohme Corp., priority 2015, dated 2019).

pIC50: −log10 of the molar value.

For experiment [1], the target named is IDO (SKOV-3 cells) (Homo sapiens (Human), UniProt P14902). The experiment can be described thus: IDO cell-based assay (kynurenine production in IFNγ-induced SKOV-3 cells). Particulars: IFNγ 500 ng/ml, 500 μM L-Trp, 48 h, read-out: pIC50, IDO cellular assay (SKOV3) (converted). The text has this: (§1) For REF1-REF3 and Compounds 1-11, two different types of assay were employed: 1. An IDO biochemical coupled assay which utilised recombinantly produced and purified IDO enzyme in combination with the enzyme formamidase. This coupled enzyme system allowed conversion of N-formylkynurenine produced by IDO activity to kynurenine which was then quantified by fluorescence following addition of Erhlich's Reagent. 2. A cell-based assay for detecting the effect of test compounds on kynurenine production in cancer cells. This assay utilised cancer cells which expressed IDO and as such was used as a means of testing compound activity at the enzyme in a cell-based context. The protocols for these are set out below.
IDO (SKOV-3 cells), sequence (P14902 whole entry): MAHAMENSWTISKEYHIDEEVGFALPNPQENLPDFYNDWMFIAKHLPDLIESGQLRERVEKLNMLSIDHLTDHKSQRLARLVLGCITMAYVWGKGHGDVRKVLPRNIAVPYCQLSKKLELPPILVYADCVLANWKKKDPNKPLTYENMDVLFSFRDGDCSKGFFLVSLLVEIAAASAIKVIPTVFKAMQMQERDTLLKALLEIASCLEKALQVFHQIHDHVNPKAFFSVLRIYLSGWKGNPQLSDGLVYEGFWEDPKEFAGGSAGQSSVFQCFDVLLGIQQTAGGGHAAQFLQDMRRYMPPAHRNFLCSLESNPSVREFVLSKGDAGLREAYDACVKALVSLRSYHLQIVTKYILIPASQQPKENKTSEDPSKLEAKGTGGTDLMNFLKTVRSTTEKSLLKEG
SKOV-3 ovary adenocarcinoma (ATCC) cells were grown in McCoys 5A+L-glutamax medium supplemented with 15% foetal bovine serum. On the day of assay, cells were detached using trypsin-EDTA (0.25% v/v), re-suspended in assay media (RPMI 1640 phenol red free+L-glutamine supplemented with 10% dialysed foetal bovine serum). SKOV-3 cells were seeded at 40K cells per well into 96-well plates containing test samples/vehicle control together with 500 μM L-Trp. Cells were then incubated for 48 h at 37° C. 5% CO2. IFNγ was also added at 500 ng/ml for the 48 h incubation in order to induce expression of IDO. Plates were centrifuged and the supernatant was removed and incubated for 5 min in the presence of 1% Erhlich's reagent. Kynurenine levels were then quantified by measuring absorbance at 490 nm.

Experiment [2] has as its target hIDO1 (Homo sapiens (Human), UniProt P14902). The experiment in a line: IDO1 cellular assay in HEK293 cells transiently expressing hIDO1. Format: cell-based. Particulars: HEK293 cell line transiently expressing hIDO1, n=1. As for the experimental part:
Compounds to be tested were serially diluted in ten 3-fold steps in DMSO starting from 10 mM DMSO stocks. Compound dilutions or DMSO alone were then dispensed from the dilution plate into a Greiner black 384-well assay plate (catalog #781086) using an Echo 550 acoustic liquid handler (Labcyte).
HEK293 cell pellets were resuspended to 5×10^5 cells/mL in complete HEK293 culture media (89% DMEM, 10% FBS, 1% penicillin/streptomycin). Suspended cells (2 mL) were dispensed into each well of a 6-well Corning plate (Catalog#3516). Cells were allowed to attach and were incubated for 20 hours at 37 degrees Celsius in a 5% CO2 incubator. […]
Media was removed from the cells which were then washed with 2 mL Dulbecco's phosphate-buffered saline (DPBS). […] Plates were incubated at 37 degrees in a 5% CO2 incubator overnight to develop fluorescence. […] The resulting fluorescence was measured in an Envision plate reader (Perkin Elmer) with a 400/25 nm excitation filter and an 510/20 nm emission filter.
The fluorescence intensity of each well was corrected for the background observed in wells with untransfected cells and was expressed as a fraction of the intensity observed in wells of IDO1 transfected cells and DMSO only. Potencies were calculated by […] to the four parameter logistic IC50 equation.

Experiment [3] has as its target human IDO protein (Homo sapiens (Human), UniProt P14902). The experiment can be described thus: IDO biochemical coupled assay (formamidase, Ehrlich's reagent). Particulars: 0.17 μM human IDO, 120 min pre-incubation, 45 μM L-Trp; read-out: hIDO biochemical assay pIC50 (converted).
Source text: as §1
0.17 μM of human IDO protein was pre-incubated for 120 min at RT with test compounds in the presence of 50 mM KPO4, pH 7.0, 0.5 mM EDTA, 0.5 mM EGTA, 0.05% Triton X-100, 20 mM ascorbate, 500 U/ml catalase, 10 μM methylene blue at RT in a 384 well plate. 0.05 μg/μl kynurenine formamidase and 45 μM L-tryptophan (L-Trp) were added and the assays were incubated at RT for 40 min. Assays were stopped and the level of kynurenine was determined by incubation with Ehrlich's reagent to a final concentration of 1.33% at RT for 5 min. Fluorescence intensity was read at 475 nm/530 nm.

human IDO protein, sequence (P14902 whole entry): as above
hIDO1, sequence (P14902 whole entry): as above

As to `O=C(NC1(c2cnn(-c3ccccc3)c2)CC1)c1cc2cc(Cl)ccc2[nH]1` [Compound 5], the IC50 in experiment [1] is 91.2 nM.

Regarding `Cn1cc(C2(NC(=O)c3cc4cc(Cl)ccc4[nH]3)CC2)cn1` [REF 1, reference compound], the IC50 in experiment [1] is 126 nM.

Consider `C[C@H]1C[C@@]1(NC(=O)c1cc2cc(Cl)ccc2[nH]1)c1cnn(-c2ccc(Cl)cc2)c1` (single isomer, unassigned) [Compound 10, enantiomer 1], for which the IC50 in experiment [1] was 34.7 nM.

For `C[C@H]1C[C@@]1(NC(=O)c1cc2cc(C#N)ccc2[nH]1)c1cnn(-c2ccccc2)c1` (single isomer, unassigned) [Compound 9, enantiomer 1], the IC50 in experiment [1] is 77.6 nM.

As for `Cn1cc(C2(NC(=O)c3cc4cc(Br)cc(F)c4[nH]3)CC2)cn1` [Compound 6], the IC50 in experiment [1] was 83.2 nM.

On to `C[C@H]1C[C@@]1(NC(=O)c1cc2cc(Cl)ccc2[nH]1)c1cnn(-c2ccc(F)cc2)c1` (single isomer, unassigned) [Compound 11, enantiomer 2], for which the IC50 in experiment [1] was 10 nM.

For `CCn1cc(C2(NC(=O)c3cc4cc(Cl)ccc4[nH]3)CC2)cn1` [REF 2, reference compound], in experiment [1], the IC50 was 186 nM.

In the case of `C[C@H]1C[C@@]1(NC(=O)c1cc2cc(C#N)ccc2[nH]1)c1cnn(-c2ccccc2)c1` (single isomer, unassigned) [Compound 9, enantiomer 2], the IC50 in experiment [1] is 43.7 nM.

Consider `CCc1nn(C)cc1C1(NC(=O)c2cc3cc(Cl)ccc3[nH]2)CC1` [Compound 3], for which the IC50 in experiment [1] is 89.1 nM.

As to `C[C@@H]1C[C@]1(NC(=O)c1cc2cc(C#N)ccc2[nH]1)c1cnn(C)c1` (stereo in doubt) [Compound 12, 5-cyano-N-((1R,2R)-2-methyl-1-(1-methyl-1H-pyrazol-4-yl)cyclopropyl)-1H-indole-2-carboxamide], the negative-log IC50 (pIC50) (as a rule, the IC50 on a negative log10 scale, so that one unit is a factor of ten) in experiment [2] was 6.69.

As to `Cn1cc(C2(NC(=O)c3cc4cc(Br)ccc4[nH]3)CC2)cn1` [REF 3, reference compound], the IC50 in experiment [1] is 182 nM.

On to `C[C@H]1C[C@@]1(NC(=O)c1cc2cc(Cl)ccc2[nH]1)c1cnn(-c2ccc(Cl)cc2)c1` (single isomer, unassigned) [Compound 10, enantiomer 2], for which the IC50 in experiment [1] is 11.7 nM.

Take `C[C@H]1C[C@@]1(NC(=O)c1cc2cc(Cl)ccc2[nH]1)c1cnn(-c2ccc(F)cc2)c1` (single isomer, unassigned) [Compound 11, enantiomer 1]: the IC50 in experiment [1] is 28.2 nM.

Regarding `C[C@H]1C[C@@]1(NC(=O)c1cc2cc(Br)ccc2[nH]1)c1cnn(C)c1` (racemic) [Compound 2, racemic], the IC50 in experiment [1] is 31.6 nM; in experiment [3] it was 398 nM.

Consider `CC(C)c1nn(C)cc1C1(NC(=O)c2cc3cc(Cl)ccc3[nH]2)CC1` [Compound 4], for which, in experiment [1], the IC50 was 87.1 nM.
